According to the NIST ThermoML archive (doi:10.1016/j.fluid.2014.04.038):
Several values for one entry are separate records, joined by “and”; a condition that tells them apart may be missing. Identical values can stand only once.

Conditions: Hot wire method

CCF [fluoroethane]
Conditions	thermal conductivity [W/m/K]
327.04 K, 1095.3 kPa, Gas	0.01963
327.1 K, 807.3 kPa, Gas	0.01901
327.1 K, 968 kPa, Gas	0.01947
327.18 K, 798.3 kPa, Gas	0.01958
327.49 K, 616.5 kPa, Gas	0.01891
327.67 K, 420.8 kPa, Gas	0.01907
327.88 K, 999.2 kPa, Gas	0.01944
328.12 K, 807.3 kPa, Gas	0.01964
328.26 K, 616.5 kPa, Gas	0.0193
328.79 K, 420.8 kPa, Gas	0.01938
332.17 K, 969.9 kPa, Gas	0.02009
332.31 K, 756.8 kPa, Gas	0.01954
332.66 K, 396.8 kPa, Gas	0.01951
332.66 K, 969.9 kPa, Gas	0.02013
333.3 K, 756.8 kPa, Gas	0.01971
333.74 K, 396.8 kPa, Gas	0.01972
336.09 K, 1491 kPa, Gas	0.02082
336.27 K, 1198.3 kPa, Gas	0.02033
336.49 K, 1758.2 kPa, Gas	0.02175
336.67 K, 1491 kPa, Gas	0.02077
336.83 K, 865.8 kPa, Gas	0.01986
336.9 K, 1198.3 kPa, Gas	0.02068
336.91 K, 706.3 kPa, Gas	0.01983
337.06 K, 1758.2 kPa, Gas	0.02164
337.27 K, 1491 kPa, Gas	0.0208
337.33 K, 480.3 kPa, Gas	0.02
337.56 K, 1198.3 kPa, Gas	0.02055
337.61 K, 206.2 kPa, Gas	0.02003
337.81 K, 865.8 kPa, Gas	0.01999
337.89 K, 706.3 kPa, Gas	0.01991
338.08 K, 480.3 kPa, Gas	0.01991
338.76 K, 206.2 kPa, Gas	0.02026
345.5 K, 2260 kPa, Gas	0.0234
345.62 K, 2008 kPa, Gas	0.02287
345.73 K, 1253.4 kPa, Gas	0.02123
345.76 K, 1802.5 kPa, Gas	0.02255
345.91 K, 1001.2 kPa, Gas	0.0213
346.04 K, 748.6 kPa, Gas	0.02153
346.17 K, 2008 kPa, Gas	0.02305
346.18 K, 454.4 kPa, Gas	0.02091
346.2 K, 1802.5 kPa, Gas	0.02205
346.23 K, 2260 kPa, Gas	0.02334
346.43 K, 1560.1 kPa, Gas	0.02199
346.52 K, 1253.4 kPa, Gas	0.02134
346.59 K, 250.1 kPa, Gas	0.02108
346.68 K, 1001.2 kPa, Gas	0.02108
346.83 K, 454.4 kPa, Gas	0.02085
346.87 K, 2260 kPa, Gas	0.02339
346.91 K, 748.6 kPa, Gas	0.02154
347.13 K, 2008 kPa, Gas	0.02317
347.22 K, 1802.5 kPa, Gas	0.02234
347.3 K, 250.1 kPa, Gas	0.02135
347.67 K, 1560.1 kPa, Gas	0.02199
347.86 K, 1253.4 kPa, Gas	0.02137
348.08 K, 1001.2 kPa, Gas	0.02122
348.34 K, 748.6 kPa, Gas	0.02136
348.4 K, 250.1 kPa, Gas	0.0215
348.67 K, 454.4 kPa, Gas	0.02127
355.01 K, 2934.5 kPa, Gas	0.02654
355.38 K, 2586.5 kPa, Gas	0.02498
355.41 K, 2277.9 kPa, Gas	0.02422
355.59 K, 2007.1 kPa, Gas	0.02432
355.72 K, 1531.1 kPa, Gas	0.02295
355.79 K, 2586.5 kPa, Gas	0.02513
355.91 K, 2277.9 kPa, Gas	0.02436
355.95 K, 2934.5 kPa, Gas	0.0265
355.99 K, 1034.8 kPa, Gas	0.02302
356.06 K, 2007.1 kPa, Gas	0.02406
356.17 K, 611.2 kPa, Gas	0.02275
356.26 K, 2586.5 kPa, Gas	0.02498
356.27 K, 1531.1 kPa, Gas	0.02331
356.32 K, 266.7 kPa, Gas	0.02267
356.52 K, 2277.9 kPa, Gas	0.02412
356.55 K, 1034.8 kPa, Gas	0.0229
356.73 K, 2007.1 kPa, Gas	0.02363
356.82 K, 611.2 kPa, Gas	0.02305
357.02 K, 266.7 kPa, Gas	0.02276
357.06 K, 1531.1 kPa, Gas	0.02299
357.39 K, 1034.8 kPa, Gas	0.02287
357.69 K, 611.2 kPa, Gas	0.02264
357.98 K, 266.7 kPa, Gas	0.02298
364.77 K, 3438 kPa, Gas	0.02941
364.87 K, 3960.3 kPa, Gas	0.03259
365.05 K, 2942.4 kPa, Gas	0.02781
365.11 K, 3438 kPa, Gas	0.02942
365.43 K, 2942.4 kPa, Gas	0.02721
365.62 K, 2506.8 kPa, Gas	0.0257
365.62 K, 3718.5 kPa, Gas	0.03133
365.65 K, 3438 kPa, Gas	0.02965
365.98 K, 2942.4 kPa, Gas	0.027
365.99 K, 2001.8 kPa, Gas	0.02478
366.21 K, 2506.8 kPa, Gas	0.02572
366.21 K, 3718.5 kPa, Gas	0.03142
366.29 K, 533.7 kPa, Gas	0.02342
366.42 K, 1515.5 kPa, Gas	0.02467
366.63 K, 1029 kPa, Gas	0.0243
366.67 K, 2001.8 kPa, Gas	0.02473
366.76 K, 2506.8 kPa, Gas	0.02558
367.1 K, 1515.5 kPa, Gas	0.02393
367.32 K, 2001.8 kPa, Gas	0.02511
367.38 K, 533.7 kPa, Gas	0.0242
367.49 K, 1029 kPa, Gas	0.02463
368.3 K, 533.7 kPa, Gas	0.02352
368.41 K, 1515.5 kPa, Gas	0.02402
368.9 K, 1029 kPa, Gas	0.02415
373.83 K, 4470.3 kPa, Gas	0.03726
373.99 K, 4470.3 kPa, Gas	0.03714
374.47 K, 4470.3 kPa, Gas	0.03687
374.48 K, 2938.6 kPa, Gas	0.02793
374.62 K, 2478.9 kPa, Gas	0.02638
374.67 K, 3543.9 kPa, Gas	0.03045
374.7 K, 2119.8 kPa, Gas	0.02585
374.85 K, 1564.8 kPa, Gas	0.02515
375.05 K, 2938.6 kPa, Gas	0.02813
375.25 K, 2119.8 kPa, Gas	0.02574
375.37 K, 364.6 kPa, Gas	0.02485
375.68 K, 1564.8 kPa, Gas	0.0258
375.8 K, 2478.9 kPa, Gas	0.02745
375.94 K, 2119.8 kPa, Gas	0.02613
376.1 K, 887.8 kPa, Gas	0.02494
376.18 K, 1564.8 kPa, Gas	0.02555
376.41 K, 364.6 kPa, Gas	0.02448
376.83 K, 887.8 kPa, Gas	0.02525
377.08 K, 364.6 kPa, Gas	0.02454
377.36 K, 5247.3 kPa, Fluid (supercritical or subcritical phases)	0.07905
377.63 K, 5247.3 kPa, Fluid (supercritical or subcritical phases)	0.08228
377.73 K, 5247.3 kPa, Fluid (supercritical or subcritical phases)	0.08638
380.51 K, 5230.1 kPa, Fluid (supercritical or subcritical phases)	0.05046

Liquid
Conditions	thermal conductivity
334.87 K	0.09073 W/m/K and 0.09116 W/m/K and 0.09121 W/m/K
335.25 K	0.09091 W/m/K and 0.09082 W/m/K
335.26 K	0.09123 W/m/K
335.66 K	0.09055 W/m/K and 0.09054 W/m/K
335.67 K	0.09089 W/m/K
344.8 K	0.08543 W/m/K
344.82 K	0.08529 W/m/K and 0.08532 W/m/K
345.2 K	0.08496 W/m/K
345.21 K	0.08506 W/m/K and 0.08519 W/m/K
345.68 K	0.08484 W/m/K
345.7 K	0.08488 W/m/K
345.72 K	0.08489 W/m/K
354.61 K	0.081 W/m/K
354.62 K	0.08121 W/m/K and 0.08127 W/m/K
354.87 K	0.08113 W/m/K
354.88 K	0.08093 W/m/K and 0.08129 W/m/K
354.89 K	0.08101 W/m/K
354.97 K	0.08115 W/m/K
354.99 K	0.08085 W/m/K
355 K	0.08097 W/m/K
355.29 K	0.0807 W/m/K and 0.08094 W/m/K
355.3 K	0.08092 W/m/K
355.37 K	0.08104 W/m/K
355.38 K	0.08142 W/m/K and 0.08125 W/m/K
355.7 K	0.08043 W/m/K and 0.08031 W/m/K
355.71 K	0.08044 W/m/K
364.69 K	0.07657 W/m/K
364.71 K	0.07768 W/m/K
364.75 K	0.07676 W/m/K
365.06 K	0.07678 W/m/K
365.08 K	0.07679 W/m/K and 0.07656 W/m/K
365.47 K	0.07603 W/m/K
365.52 K	0.07616 W/m/K
365.53 K	0.07615 W/m/K
374.47 K	0.07323 W/m/K
374.48 K	0.07368 W/m/K and 0.07356 W/m/K
374.81 K	0.07343 W/m/K and 0.07344 W/m/K
374.82 K	0.07343 W/m/K
375.2 K	0.07321 W/m/K
375.21 K	0.07381 W/m/K and 0.07357 W/m/K
